Measurements: patent publication US5102786A, “Biological diagnostic assay system” (PB Diagnostic Systems, Inc., priority 1987, dated 1992)
Values belong to the molecule of their own block, whether it stands above or below them.

Tests used:
[1] = target: T1, plasma proteins (Homo sapiens, UniProt P02768); experiment: in vitro; format: binding; conditions: plasma
T1 construct: Experiments were conducted with a set of plasma solutions in HEPES buffer; from tissue; host or cells: plasma
Protocol: Experiments were conducted with a set of plasma solutions in HEPES buffer containing ^14 C-labeled phenytoin (9.3×10^-5 M) and varying amounts of PNS.

[2] = test system: plasma proteins; experiment: Displacement of a theophylline-rhodamine conjugate from plasma proteins (Centricon 30 filtration, 500-600 nm); format: binding, human; conditions: CONTROL (no PNS), 10 µM
[3] = test system: B-phycoerythrin; experiment: Fluorescent emission of B-phycoerythrin as a function of PNS and ANS
Protocol: (§1) The fluorescent emissions of B- and R-phycoerythrin were studied as a function of PNS and 8-anilino-1-naphthalene sulfonic acid (ANS). The experiments were conducted with solutions of the phycoerythrin (1.7×10^-10 M) in HEPES buffer containing varying amounts of PNS and ANS. The phycoerythrins were excited at 560 nm and their emissions measured at 575 nm.

[4] = test system: R-phycoerythrin; experiment: Fluorescent emission of R-phycoerythrin as a function of PNS and ANS
Protocol: as §1

[5] = 0.125% PNS or ANS, excited at 560 nm, emission 575 nm, HEPES buffer

T1 sequence (P02768 25-609): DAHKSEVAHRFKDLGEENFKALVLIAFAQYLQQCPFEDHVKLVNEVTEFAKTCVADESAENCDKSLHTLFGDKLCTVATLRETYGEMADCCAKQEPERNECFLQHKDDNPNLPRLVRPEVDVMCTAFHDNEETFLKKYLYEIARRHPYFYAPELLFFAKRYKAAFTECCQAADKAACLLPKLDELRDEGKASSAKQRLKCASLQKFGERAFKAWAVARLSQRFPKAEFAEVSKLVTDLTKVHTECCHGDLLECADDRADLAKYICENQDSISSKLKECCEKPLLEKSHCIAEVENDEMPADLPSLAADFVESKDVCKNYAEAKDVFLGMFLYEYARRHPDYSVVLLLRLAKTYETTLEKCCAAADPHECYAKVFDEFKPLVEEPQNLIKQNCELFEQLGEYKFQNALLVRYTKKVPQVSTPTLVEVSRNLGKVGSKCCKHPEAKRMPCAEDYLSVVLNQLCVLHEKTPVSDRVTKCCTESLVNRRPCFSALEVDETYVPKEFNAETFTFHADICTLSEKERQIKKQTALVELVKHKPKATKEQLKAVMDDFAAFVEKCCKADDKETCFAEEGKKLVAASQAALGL

fraction unbound at 93 µM [1]: 0.119
Structure (SMILES): O=C1NC(=O)C(c2ccccc2)(c2ccccc2)N1 [phenytoin, reference compound]

Structure (SMILES): Cn1c(=O)c2[nH]c(CCCC(=O)N3CCN(C(=O)c4ccccc4C4=c5cc6c(cc5Oc5cc7c(cc54)CCCN7CC(=O)NCCS(=O)(=O)O)=[N+](CC(=O)NCCS(=O)(=O)[O-])CCC6)CC3)nc2n(C)c1=O [theophylline-rhodamine conjugate, reference compound]
% CONJUGATE (free conjugate in the filtrate) ([2]; 0% plasma): 100% | % CONJUGATE (free conjugate in the filtrate) ([2]; 5% plasma): 93% | % CONJUGATE (free conjugate in the filtrate) ([2]; 20% plasma): 82% | % CONJUGATE (free conjugate in the filtrate) ([2]; 45% plasma): 70% | % CONJUGATE (free conjugate in the filtrate) ([2]; 65% plasma): 66% | % CONJUGATE (free conjugate in the filtrate) ([2]; 85% plasma): 57% | % CONJUGATE (free conjugate in the filtrate) ([2]; 95% plasma in HEPES buffer): 50%

Structure (SMILES): O=S(=O)(O)c1cccc2cccc(Nc3ccccc3)c12 [ANS, 8-anilino-1-naphthalene sulfonic acid, reference compound]
B-phycoerythrin rel. fl. intensity in the presence of PNS or ANS [3, 5]: 0.61 | effect on fluorescence emission of B-phycoerythrin in solution (in words) ([3]; 0.125-0.50% agent): quenches the emissions of both phycoerythrins very strongly | B-phycoerythrin rel. fl. intensity in the presence of PNS or ANS ([3]; 0.25% PNS or ANS): 0.43 | B-phycoerythrin rel. fl. intensity in the presence of PNS or ANS ([3]; 0.375% PNS or ANS): 0.33 | B-phycoerythrin rel. fl. intensity in the presence of PNS or ANS ([3]; 0.50% PNS or ANS): 0.25 | R-phycoerythrin rel. fl. intensity in the presence of PNS or ANS [4, 5]: 0.72 | effect on fluorescence emission of R-phycoerythrin in solution (in words) ([4]; 0.125-0.50% agent): quenches the emissions of both phycoerythrins very strongly | R-phycoerythrin rel. fl. intensity in the presence of PNS or ANS ([4]; 0.25% PNS or ANS): 0.54 | R-phycoerythrin rel. fl. intensity in the presence of PNS or ANS ([4]; 0.375% PNS or ANS): 0.40 | R-phycoerythrin rel. fl. intensity in the presence of PNS or ANS ([4]; 0.50% PNS or ANS): 0.29
